Measured values from ChEMBL document CHEMBL5241053, “Discovery of novel steroidal-chalcone hybrids with potent and selective activity against triple-negative breast cancer” (Bioorg Med Chem, 2020).
Each block holds one compound with its values, some of them ahead of it. Calls of active or inactive are those of the source. The calls are words filed in the database; no cut-off is given here.

Key:
HT-29 = assay: Antiproliferative activity against human HT-29 cells assessed as cell growth inhibition incubated for 4 hrs by MTT assay; assay type: functional, cell-based; settings: HT-29, 4 h
A549 = assay: Antiproliferative activity against human A549 cells assessed as cell growth inhibition incubated for 4 hrs by MTT assay; assay type: functional, cell-based; settings: A549, 4 h
[1] = Selectivity index, ratio of IC50 for antiproliferative activity against human A549 cells to IC50 for antiproliferative activity against human MDA-MB-231 cells; assay type: functional
MDA-MB-231 [2] = assay: Antiproliferative activity against human MDA-MB-231 cells assessed as cell growth inhibition incubated for 4 hrs by MTT assay; assay type: functional, cell-based; settings: MDA-MB-231, 4 h
MDA-MB-231 [3] = assay: Inhibition of colony formation in human MDA-MB-231 cells upto 5 uM for 9 days by crystal violet staining based assay; assay type: functional, cell-based; settings: time 9.0 day
[4] = Selectivity index, ratio of IC50 for antiproliferative activity against human HT-29 cells to IC50 for antiproliferative activity against human MDA-MB-231 cells; assay type: functional
MDA-MB-231 [5] = assay: Induction of apoptosis in human MDA-MB-231 cells assessed as necrotic cells at 5 uM measured for 48 hrs by Annexin V-FITC/PI staining based flow cytometry assay (reference value: 0.43%); assay type: functional
MDA-MB-231 [6] = assay: Induction of apoptosis in human MDA-MB-231 cells assessed as upregulation of cleaved caspase-3 level upto 20 uM incubated for 48 hrs by Western blot analysis; assay type: functional, cell-based
MDA-MB-231 [7] = assay: Induction of cell cycle arrest in human MDA-MB-231 cells assessed as accumulation of cells at M1 phase at 1 uM incubated for 48 hrs by propidium iodide staining based flow cytometry (reference value: 7.1%); assay type: functional
MDA-MB-231 [8] = assay: Induction of apoptosis in human MDA-MB-231 cells assessed as late apoptotic cells at 1 uM measured for 48 hrs by Annexin V-FITC/PI staining based flow cytometry assay (reference value: 5.39%); assay type: functional
MDA-MB-231 [9] = assay: Induction of apoptosis in human MDA-MB-231 cells assessed as decrease in Bcl-2 level upto 20 uM incubated for 48 hrs by Western blot analysis; assay type: functional, cell-based
MDA-MB-231 [10] = assay: Induction of cell cycle arrest in human MDA-MB-231 cells assessed as accumulation of cells at S phase at 10 uM incubated for 48 hrs by propidium iodide staining based flow cytometry (reference value: 3.62%); assay type: functional
MDA-MB-231 [11] = assay: Induction of cell cycle arrest in human MDA-MB-231 cells assessed as accumulation of cells at G2/M phase at 10 uM incubated for 48 hrs by propidium iodide staining based flow cytometry (reference value: 3.61%); assay type: functional
MDA-MB-231 [12] = assay: Induction of cell cycle arrest in human MDA-MB-231 cells assessed as accumulation of cells at G0/G1 phase at 1 uM incubated for 48 hrs by propidium iodide staining based flow cytometry (reference value: 90.25%); assay type: functional
MDA-MB-231 [13] = assay: Induction of cell cycle arrest in human MDA-MB-231 cells assessed as accumulation of cells at G2/M phase at 5 uM incubated for 48 hrs by propidium iodide staining based flow cytometry (reference value: 3.61%); assay type: functional
MDA-MB-231 [14] = assay: Induction of apoptosis in human MDA-MB-231 cells assessed as necrotic cells at 1 uM measured for 48 hrs by Annexin V-FITC/PI staining based flow cytometry assay (reference value: 0.43%); assay type: functional
MDA-MB-231 [15] = assay: Induction of apoptosis in human MDA-MB-231 cells assessed as late apoptotic cells at 13.5 uM measured for 48 hrs by Annexin V-FITC/PI staining based flow cytometry assay (reference value: 5.39%); assay type: functional
MDA-MB-231 [16] = assay: Induction of cell cycle arrest in human MDA-MB-231 cells assessed as accumulation of cells at M1 phase at 20 uM incubated for 48 hrs by propidium iodide staining based flow cytometry (reference value: 7.1%); assay type: functional
MDA-MB-231 [17] = assay: Induction of apoptosis in human MDA-MB-231 cells assessed as increase in ROS levels at 10 uM measured at 12 hrs by DCFH-DA staining based flow cytometry assay; assay type: functional, cell-based
MDA-MB-231 [18] = assay: Induction of apoptosis in human MDA-MB-231 cells assessed as upregulation of PARP level upto 20 uM incubated for 48 hrs by Western blot analysis; assay type: functional, cell-based
MDA-MB-231 [19] = assay: Induction of apoptosis in human MDA-MB-231 cells assessed as necrotic cells at 10 uM measured for 48 hrs by Annexin V-FITC/PI staining based flow cytometry assay (reference value: 0.43%); assay type: functional
MDA-MB-231 [20] = assay: Induction of apoptosis in human MDA-MB-231 cells assessed as late apoptotic cells at 5 uM measured for 48 hrs by Annexin V-FITC/PI staining based flow cytometry assay (reference value: 5.39%); assay type: functional
MDA-MB-231 [21] = assay: Induction of cell cycle arrest in human MDA-MB-231 cells assessed as accumulation of cells at G2/M phase at 20 uM incubated for 48 hrs by propidium iodide staining based flow cytometry (reference value: 3.61%); assay type: functional
MDA-MB-231 [22] = assay: Induction of cell cycle arrest in human MDA-MB-231 cells assessed as accumulation of cells at G0/G1 phase at 10 uM incubated for 48 hrs by propidium iodide staining based flow cytometry (reference value: 90.25%); assay type: functional
MDA-MB-231 [23] = assay: Induction of cell cycle arrest in human MDA-MB-231 cells assessed as accumulation of cells at M1 phase at 10 uM incubated for 48 hrs by propidium iodide staining based flow cytometry (reference value: 7.1%); assay type: functional
MDA-MB-231 [24] = assay: Induction of apoptosis in human MDA-MB-231 cells assessed as early apoptotic cells at 1 uM measured for 48 hrs by Annexin V-FITC/PI staining based flow cytometry assay (reference value: 0.49%); assay type: functional
MDA-MB-231 [25] = assay: Induction of cell cycle arrest in human MDA-MB-231 cells assessed as accumulation of cells at G2/M phase at 1 uM incubated for 48 hrs by propidium iodide staining based flow cytometry (reference value: 3.61%); assay type: functional
MDA-MB-231 [26] = assay: Induction of cell cycle arrest in human MDA-MB-231 cells assessed as accumulation of cells at S phase at 5 uM incubated for 48 hrs by propidium iodide staining based flow cytometry (reference value: 3.62%); assay type: functional
MDA-MB-231 [27] = assay: Induction of cell cycle arrest in human MDA-MB-231 cells assessed as accumulation of cells at M1 phase at 5 uM incubated for 48 hrs by propidium iodide staining based flow cytometry (reference value: 7.1%); assay type: functional
MDA-MB-231 [28] = assay: Induction of apoptosis in human MDA-MB-231 cells assessed as viable cells at 10 uM measured for 48 hrs by Annexin V-FITC/PI staining based flow cytometry assay (reference value: 93.7%); assay type: functional; settings: read-out: Activity
MDA-MB-231 [29] = assay: Induction of cell cycle arrest in human MDA-MB-231 cells assessed as accumulation of cells at G0/G1 phase at 20 uM incubated for 48 hrs by propidium iodide staining based flow cytometry (reference value: 90.25%); assay type: functional
MDA-MB-231 [30] = assay: Induction of apoptosis in human MDA-MB-231 cells assessed as early apoptotic cells at 5 uM measured for 48 hrs by Annexin V-FITC/PI staining based flow cytometry assay (reference value: 0.49%); assay type: functional
MDA-MB-231 [31] = assay: Induction of apoptosis in human MDA-MB-231 cells assessed as viable cells at 1 uM measured for 48 hrs by Annexin V-FITC/PI staining based flow cytometry assay (reference value: 93.7%); assay type: functional; settings: read-out: Activity
MDA-MB-231 [32] = assay: Induction of apoptosis in human MDA-MB-231 cells assessed as viable cells at 5 uM measured for 48 hrs by Annexin V-FITC/PI staining based flow cytometry assay (reference value: 93.7%); assay type: functional; settings: read-out: Activity
MDA-MB-231 [33] = assay: Induction of apoptosis in human MDA-MB-231 cells assessed as early apoptotic cells at 10 uM measured for 48 hrs by Annexin V-FITC/PI staining based flow cytometry assay (reference value: 0.49%); assay type: functional
MDA-MB-231 [34] = assay: Induction of apoptosis in human MDA-MB-231 cells assessed as increase in ROS levels at 10 uM measured upto 48 hrs by DCFH-DA staining based flow cytometry assay; assay type: functional, cell-based
MDA-MB-231 [35] = assay: Induction of cell cycle arrest in human MDA-MB-231 cells assessed as accumulation of cells at S phase at 1 uM incubated for 48 hrs by propidium iodide staining based flow cytometry (reference value: 3.62%); assay type: functional
MDA-MB-231 [36] = assay: Induction of cell cycle arrest in human MDA-MB-231 cells assessed as accumulation of cells at G0/G1 phase at 5 uM incubated for 48 hrs by propidium iodide staining based flow cytometry (reference value: 90.25%); assay type: functional
MDA-MB-231 [37] = assay: Induction of cell cycle arrest in human MDA-MB-231 cells assessed as accumulation of cells at S phase at 20 uM incubated for 48 hrs by propidium iodide staining based flow cytometry (reference value: 3.62%); assay type: functional
MDA-MB-231 [38] = assay: Induction of apoptosis in human MDA-MB-231 cells assessed as increase in Bax level upto 20 uM incubated for 48 hrs by Western blot analysis; assay type: functional, cell-based

SMILES: COc1ccccc1/C=C/C(=O)NCCNC(=O)[C@H]1CC[C@H]2[C@@H]3CCC4=CC(=O)C=C[C@]4(C)[C@H]3CC[C@]12C
IC50 (HT-29): 16.8 µM | IC50 (A549): 29.9 µM | Ratio IC50 [1]: 57.6 | IC50 (MDA-MB-231 [2]): 0.52 µM | inhibition (MDA-MB-231 [3]): Active | Ratio IC50 [4]: 32.3

SMILES: COc1ccccc1/C=C/C(=O)NCCNC(=O)[C@H]1CC[C@H]2[C@@H]3CCC4=CC(=O)CC[C@]4(C)[C@H]3CC[C@]12C
Activity (MDA-MB-231 [5]): 0.16% | Activity (MDA-MB-231 [6]): Active | Activity (MDA-MB-231 [7]): 13.8% | Activity (MDA-MB-231 [8]): 6.63% | Activity (MDA-MB-231 [9]): Active | Activity (MDA-MB-231 [10]): 28.07% | IC50 (HT-29): 11.7 µM | Activity (MDA-MB-231 [11]): 13.15% | Activity (MDA-MB-231 [12]): 84.13% | IC50 (A549): 30.9 µM | Activity (MDA-MB-231 [13]): 12.25% | Activity (MDA-MB-231 [14]): 0.16% | Activity (MDA-MB-231 [15]): 13.5% | Activity (MDA-MB-231 [16]): 37.4% | Ratio IC50 [1]: 73.5 | Activity (MDA-MB-231 [17]): Active | Activity (MDA-MB-231 [18]): Active | Activity (MDA-MB-231 [19]): 0.4% | Activity (MDA-MB-231 [20]): 4.35% | Activity (MDA-MB-231 [21]): 10.01% | Activity (MDA-MB-231 [22]): 55.27% | Activity (MDA-MB-231 [23]): 22.8% | Activity (MDA-MB-231 [24]): 9.24% | Activity (MDA-MB-231 [25]): 12.11% | Activity (MDA-MB-231 [26]): 15.23% | Activity (MDA-MB-231 [27]): 16% | viability at 10 µM (MDA-MB-231 [28]): 41.1% | IC50 (MDA-MB-231 [2]): 0.42 µM | inhibition (MDA-MB-231 [3]): Active | Activity (MDA-MB-231 [29]): 47.17% | Activity (MDA-MB-231 [30]): 17.1% | viability at 1 µM (MDA-MB-231 [31]): 84% | Ratio IC50 [4]: 22.5 | viability at 5 µM (MDA-MB-231 [32]): 78.3% | Activity (MDA-MB-231 [33]): 45% | Activity (MDA-MB-231 [34]): Active | Activity (MDA-MB-231 [35]): 2.52% | Activity (MDA-MB-231 [36]): 69.83% | Activity (MDA-MB-231 [37]): 37.22% | Activity (MDA-MB-231 [38]): Active

SMILES: C[C@]12CC[C@H]3[C@@H](CCC4=CC(=O)C=C[C@@]43C)[C@@H]1CC[C@@H]2C(=O)NCCNC(=O)/C=C/c1cccc([N+](=O)[O-])c1
IC50 (HT-29): > 40 µM | IC50 (A549): 34.2 µM | Ratio IC50 [1]: 2.5 | IC50 (MDA-MB-231 [2]): 13.7 µM | Ratio IC50 [4]: >2.9

SMILES: COc1ccc(/C=C/C(=O)NCCNC(=O)[C@H]2CC[C@H]3[C@@H]4CCC5=CC(=O)CC[C@]5(C)[C@H]4CC[C@]23C)cc1OC
IC50 (HT-29): 14.7 µM | IC50 (A549): 35.1 µM | Ratio IC50 [1]: 2.3 | IC50 (MDA-MB-231 [2]): 15.2 µM | Ratio IC50 [4]: 1

Continued, in another order:

IC50 (HT-29): > 40 µM | IC50 (A549): 38.1 µM | IC50 (MDA-MB-231 [2]): 12.5 µM
SMILES: C[C@]12CC[C@H]3[C@@H](CCC4=CC(=O)C=C[C@@]43C)[C@@H]1CC[C@@H]2C(=O)NCCNC(=O)/C=C/c1ccc(C(F)(F)F)cc1
Ratio IC50 [1]: 3.2 | Ratio IC50 [4]: >3.2

IC50 (HT-29): 34.2 µM | IC50 (A549): > 40 µM | IC50 (MDA-MB-231 [2]): 9.21 µM
SMILES: C[C@]12CC[C@H]3[C@@H](CCC4=CC(=O)CC[C@@]43C)[C@@H]1CC[C@@H]2C(=O)NCCNC(=O)/C=C/c1ccc(C(F)(F)F)cc1
Ratio IC50 [1]: >4.3 | Ratio IC50 [4]: 3.7
